Experimental data: article PMC6766590, “Protocatechuic acid from chicory is bioavailable and undergoes partial glucuronidation and sulfation in healthy humans” (Food Science & Nutrition, 2019)
Like-named read-outs stand apart in the source and are kept apart here.

Legend:
[1] = test system: human fecal suspensions with gut microbiota; settings: for Substrate recovered at the initial time point from the fecal suspensions: 0 hr, initial substrate dose 1 µmol; for Substrate amount in human fecal suspension: initial dose 1 µmol, 37°C anaerobic
Method: The column was a Zorbax SB‐C18 column (250 mm × 4.6 mm, 5.0 µm). […] Quantification of phenolic acids was carried out by an internal standard method using calibration curves. […] For each analytical run, a standard curve was prepared in the appropriate matrix (methanol, blank serum, urine, or feces) and used to determine the content of phenolic acids in chicory or biological samples. The detection limit for phenolic acids (10‐fold baseline noise) under the conditions used in this study was 1 ng/ml in serum and 5 ng/ml in urine and feces, and values below this concentration were reported as zero. […] Mycophenolic acid was selected as the internal standard.
Fresh feces (2 g) collected from human adults were mixed with 10 ml of brain–heart infusion medium, and the resulting solution was filtered with autoclaved gauze to remove the dregs before use. […] The mixture was fermented at 37°C under anaerobic conditions using the anaerobic chamber. […] All incubations were performed in triplicate. At the same time, the fecal suspension was incubated without phenolic acids as a negative control.

mouse gut microbiota = test system: mouse gut microbiota; design: method as in Lin et al., 2016; settings: ref Lin et al., 2016; cited from earlier work
human gut microbiota = test system: human gut microbiota; design: method as in Gonthier et al., 2006; settings: ref Gonthier et al., 2006; cited from earlier work
[2] = Single-dose pharmacokinetic trial, serum protocatechuic acid and conjugates after 150 g of chicory; assay type: in vivo, human
Method: (§1) A single-dose pharmacokinetic trial was conducted to evaluate the acute (24 hr) bioavailability of protocatechuic acid from chicory juice. Qualified participants were asked to consume foods low in phytochemicals for three days prior to the chicory juice intervention. Participants were also asked to consume a diet without vegetables, fruits, and plant-based beverages for the day prior to the intervention and the intervention day. The purpose of these dietary restrictions was to reduce any residual dietary phenolic compounds from the body (these compounds are typically cleared from blood, urine, and feces within 48 hr of consumption) and to ensure phenolic compounds present in the blood, urine, and feces samples collected during the intervention were derived from the chicory juice alone. Prior to administering the chicory juice, overnight fasting blood, urine, and feces (first-morning void) were collected at time 0 hr as the baseline. A single dose of chicory juice (150 g of chicory) was then orally ingested by each of the participants under close observation by the researcher in 5 min. No other foods or beverages were provided at this time. The chicory juice was prepared together approximately 10 min prior to this pharmacokinetic trial. One portion of chicory juice was kept to quantify the content of protocatechuic acid. […] Fecal samples from 0-24 hr after chicory juice drinking were collected. […] Mycophenolic acid was selected as the internal standard. The pharmacokinetic parameters of protocatechuic acid in the free, glucuronide, and sulfate conjugates were calculated using DAS 2.1 (BioGuider Co.), with a noncompartmental model: maximum serum concentrations (Cmax); time to achieve maximum serum concentrations (Tmax); the area under the concentration-time curve to 24 hr (AUC0-24); and terminal elimination half-life (T1/2z). The apparent bioavailability of protocatechuic acid together was quantified using AUC0-24 divided by its ingested amount. Urinary and fecal recoveries were calculated using the total content of urinary and fecal protocatechuic acid divided by its ingested amount.

[3] = Urinary excretion/recovery of protocatechuic acid and conjugates after 150 g of chicory; assay type: in vivo, human
Method: as §1

[4] = Fecal excretion/recovery of protocatechuic acid and conjugates after 150 g of chicory; assay type: in vivo, human
Method: as §1

[5] = design: method as in Wang, Zou, et al., 2011; settings: ApoE^‐/‐ mice, single oral gavage 25 mg/kg; ref Wang, Zou, et al., 2011; cited from earlier work
[6] = design: method as in Chen et al., (2012); settings: CF‐1 mice, oral 50 mg/kg; ref Chen et al., (2012); cited from earlier work

O=C(/C=C/c1ccc(O)c(O)c1)O[C@@H]1C[C@@](O)(C(=O)O)C[C@@H](O)[C@@H]1O [5‐caffeoylquinic acid]
Substrate recovered at the initial time point from the fecal suspensions [1]: 79.3 ± 5.7% | Substrate amount in human fecal suspension ([1]; incubation time 0 h): 0.79 ± 0.06 µmol

O=C(O)c1cc(O)c(O)c(O)c1 [Gallic acid]
Substrate recovered at the initial time point from the fecal suspensions [1]: 95.8 ± 3.3% | Substrate amount in human fecal suspension ([1]; incubation time 0 h): 0.96 ± 0.03 µmol | Substrate amount in human fecal suspension ([1]; incubation time 6 h): 0.75 ± 0.14 µmol | Substrate amount in human fecal suspension ([1]; incubation time 12 h): 0.60 ± 0.18 µmol | Substrate amount in human fecal suspension ([1]; incubation time 24 h): 0.27 ± 0.23 µmol

O=c1cc(-c2ccc(O)cc2)oc2cc(O)cc(O)c12 [apigenin]
Catabolism into protocatechuic acid by mouse gut microbiota (mouse gut microbiota): intensively catabolized into protocatechuic acid

O=C(/C=C/c1ccc(O)c(O)c1)O[C@@H](C(=O)O)[C@@H](O)C(=O)O [Caftaric acid]
Substrate recovered at the initial time point from the fecal suspensions [1]: 91.5% ± 4.7% | Substrate amount in human fecal suspension ([1]; incubation time 0 h): 0.92 ± 0.05 µmol | Generation of protocatechuic acid by human gut microbiota metabolism (human gut microbiota): cannot generate protocatechuic acid

O=C(O)c1ccc(O)c(O)c1 [PCA‐F, 3,4‐dihydroxybenzoic acid]
T1/2z, terminal elimination half‐life ([2]; 16 healthy adults, 150 g of chicory oral, serum): 1.72 ± 0.35 h | Recovery in blood circulation ([2]; 16 healthy adults, 150 g of chicory oral, AUC0‐24 divided by ingested amount): 15.60% ± 4.21% | half-life ([2]; both sexes, human, serum, 16 healthy adults, 150 g of chicory oral, read-out: T1/2z in serum (converted)): 1.72 ± 0.35 h | AUC(0-t) ([2]; both sexes, human, 16 healthy adults, 150 g of chicory oral, serum, read-out: AUC0−24, area under the concentration–time curve to 24 hr): 16.9 ± 3 µM·h | Cmax ([2]; both sexes, human, 16 healthy adults, 150 g of chicory oral, serum, read-out: Maximum (peak) serum concentration, Cmax): 3.27 µM | Tmax ([2]; both sexes, human, 16 healthy adults, 150 g of chicory oral, serum, read-out: Time of peak serum concentration): 1 h | Ingested protocatechuic acid recovered in the blood circulation, urine, and feces together ([2]; both, human, in vivo, po): 48.74% | Recovery in blood circulation ([2]; both, human, in vivo, po): about 23.79 % of the ingested dose | AUC(0-t) ([2]; female, human, oral, women, n = 8, 150 g of chicory, serum, read-out: AUC0−24): 17.2 ± 1.81 µM·h | Cmax ([2]; female, human, oral, women, n = 8, 150 g of chicory, serum, read-out: Cmax): 3.45 µM | half-life ([2]; female, human, oral, women, n = 8, 150 g of chicory, serum, read-out: T1/2z (converted)): 1.81 ± 0.48 h | Tmax ([2]; female, human, oral, women, n = 8, 150 g of chicory, serum, read-out: Tmax): 1 h | AUC(0-t) ([2]; male, human, oral, men, n = 8, 150 g of chicory, serum, read-out: AUC0−24): 16.6 ± 1.63 µM·h | Cmax ([2]; male, human, oral, men, n = 8, 150 g of chicory, serum, read-out: Cmax): 3.1 µM | half-life ([2]; male, human, oral, men, n = 8, 150 g of chicory, serum, read-out: T1/2z (converted)): 1.63 ± 0.04 h | Tmax ([2]; male, human, oral, men, n = 8, 150 g of chicory, serum, read-out: Tmax): 1 h | Recovery in blood circulation ([2]; men, n = 8, 150 g of chicory): 17.18 ± 4.05 % of the ingested dose | Recovery in blood circulation ([2]; women, n = 8, 150 g of chicory): 14.01 ± 3.74 % of the ingested dose | Recovery in urine ([3]; 16 healthy adults, 150 g of chicory oral, 0-24 hr urine): 12.17 % of the ingested dose | Time at which urinary excretion reached the plateau ([3]; 16 healthy adults, after chicory juice consumption): 6 h | dose excreted ([3]; human, 150 g of chicory (as juice), 16 healthy adults, 150 g of chicory oral, 0-24 hr urine): 5.02% | Recovery in urine ([3]; men, n = 8, 150 g of chicory): 5.66 ± 3.87 % of the ingested dose | Recovery in urine ([3]; women, n = 8, 150 g of chicory): 4.38 ± 2.28 % of the ingested dose | Recovery in feces ([4]; 16 healthy adults, 150 g of chicory oral, 0-24 hr feces): 12.79 % of the ingested dose | Mean content in feces ([4]; 16 healthy adults, feces 0-24 hr after 150 g of chicory): 8.00 ± 3.17 µmol | dose excreted ([4]; human, 150 g of chicory (as juice), 16 healthy adults, 150 g of chicory oral, 0-24 hr feces): 3.25% | Recovery in feces ([4]; men, n = 8, 150 g of chicory): 2.52 ± 0.87 % of the ingested dose | Recovery in feces ([4]; women, n = 8, 150 g of chicory): 3.97 ± 1.38 % of the ingested dose | Formation of protocatechuic acid from gallic, caffeic, 5‐caffeoylquinic, caftaric or chicoric acid in human fecal suspensions ([1]; 1 µmol substrate, up to 24 hr, listed as protocatechuic acid): could not be detected | Maximal level in plasma [5]: approximately 4.3 µM | Peak plasma level [6]: 73.6 µM

O=c1c(O)c(-c2ccc(O)c(O)c2)oc2cc(O)cc(O)c12 [quercetin]
Catabolism into protocatechuic acid by mouse gut microbiota (mouse gut microbiota): intensively catabolized into protocatechuic acid

O=C(O)/C=C/c1ccc(O)c(O)c1 [Caffeic acid]
Substrate recovered at the initial time point from the fecal suspensions [1]: 86.0 ± 3.0% | Substrate amount in human fecal suspension ([1]; incubation time 0 h): 0.86 ± 0.03 µmol | Substrate amount in human fecal suspension ([1]; incubation time 6 h): 0.16 ± 0.11 µmol
